Literature values in patent US20040142388A1, “Method for detecting chronic dementia diseases, and corresponding VGF peptides and detection reagents” (priority 2001, published 2004).

Test system: PC12 cell line
Conditions: rat pheochomozytome cell line (PC12), stimulation with nerve growth factor

Substance: NGF: important growth factor which regulates the differentiation of the peripheral and central nervous system
- increase in the concentration of VGF: 12- to 14 fold
